According to patent publication US6358885B1, “Substituted phenylheterocyclic herbicides” (Mississippi State University, priority 1992, dated 2002):

Assays:
crabgrass = experiment: Test B preemergence/postemergence greenhouse plant response rating 0 to 10; format: in vivo, Digitaria spp.; conditions: for Plant response rating, Crabgrass: 0 to 10 scale
Method in brief: (§1)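 Both application timings were run together: seeds got compound preemergence, and established seedlings (two to eighteen cm) got it postemergence. Non-phytotoxic solvent carried the chemical. Ratings are visual, versus controls, at twelve to sixteen days.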

lambsquarters = experiment: Test C preemergence/postemergence greenhouse plant response rating 0 to 100; format: in vivo, Chenopodium album; conditions: for Plant response rating Lambsquarters: 0 to 100 scale
Method in brief: (§2)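 Compounds in non-phytotoxic solvent went onto sandy loam before emergence (seeded one day earlier) or onto plants at the one-to-four leaf stage. Duck salad was treated via flood water (~2.5 cm, maintained) over silt loam.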

cotton [1] = experiment: Test B preemergence/postemergence greenhouse plant response rating 0 to 10; format: in vivo, Gossypium hirsutum; conditions: for Plant response rating, Cotton: 0 to 10 scale
Method in brief: as §1

duck salad = experiment: Test C flood test plant response rating 0 to 100; format: in vivo, Heteranthera limosa; conditions: for Plant response rating Duck salad: flood test species listed under POSTEMERGENCE, 0 to 100 scale
Method in brief: as §2

wild oat = experiment: Test B preemergence/postemergence greenhouse plant response rating 0 to 10; format: in vivo, Avena fatua; conditions: for Plant response rating, Wild oat: 0 to 10 scale
Method in brief: as §1

blackgrass = experiment: as above; format: in vivo, Alopecurus myosuroides; conditions: for Plant response rating, Blackgrass: POSTEMERGENCE, 0 to 10 scale
Method in brief: as §1

velvetleaf = experiment: Test C preemergence/postemergence greenhouse plant response rating 0 to 100; format: in vivo, Abutilon theophrasti; conditions: for Plant response rating, Velvetleaf: 0 to 100 scale
Method in brief: as §2

cotton [2] = experiment: as above; format: in vivo, Gossypium hirsutum; conditions: for Plant response rating, Cotton: 0 to 100 scale
Method in brief: as §2

barnyardgrass = experiment: Test C flood test plant response rating 0 to 100; format: in vivo, Echinochloa crus-galli; conditions: for Plant response rating Barnyardgrass 2: flood test species listed under POSTEMERGENCE, 0 to 100 scale
Method in brief: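 Compounds in non-phytotoxic solvent applied preemergence to sandy loam one day after planting, postemergence at the 1–4 leaf stage, or to ~2.5 cm floodwater over silt loam.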

rice = experiment: Test B preemergence/postemergence greenhouse plant response rating 0 to 10; format: in vivo, Oryza sativa; conditions: for Plant response rating, Rice: 0 to 10 scale
Method in brief: as §1

sugar beet = experiment: as above; format: in vivo, Beta vulgaris; conditions: for Plant response rating, Sugar beet: 0 to 10 scale
Method in brief: as §1

purple nutsedge = experiment: as above; format: in vivo, Cyperus rotundus; conditions: for Plant response rating, Nutsedge: 0 to 10 scale
Method in brief: as §1

wild buckwheat = experiment: Test C preemergence/postemergence greenhouse plant response rating 0 to 100; format: in vivo, Polygonum convolvulus; conditions: for Plant response rating, Wild buckwheat: 0 to 100 scale
Method in brief: as §2

pigweed = experiment: as above; format: in vivo, Amaranthusretroflexus; conditions: for Plant response rating Pigweed: 0 to 100 scale
Method in brief: as §2

wheat [3] = experiment: as above; format: in vivo, Triticum aestivum; conditions: for Plant response rating, Wheat: 0 to 100 scale
Method in brief: as §2

corn = experiment: Test B preemergence/postemergence greenhouse plant response rating 0 to 10; format: in vivo, Zea mays; conditions: for Plant response rating, Corn: 0 to 10 scale
Method in brief: as §1

wheat [4] = experiment: as above; format: in vivo, Triticum aestivum; conditions: for Plant response rating, Wheat: 0 to 10 scale
Method in brief: as §1

sorghum = experiment: as above; format: in vivo, Sorghum bicolor; conditions: for Plant response rating, Sorghum: 0 to 10 scale
Method in brief: as §1

[5] = POSTEMERGENCE section, flood test, Rate 4 g/ha
[6] = Rate 16 g/ha, under POSTEMERGENCE head (flood test species)

C#CC(C)Oc1cc(-c2nn3c(c2Br)CCCC3)c(F)cc1Cl (stereo not shown) [Compound 66]
Plant response rating, Crabgrass (crabgrass; POSTEMERGENCE, Rate 50 g/ha): 4 | Plant response rating, Crabgrass (crabgrass; PREEMERGENCE, Rate 50 g/ha): 0 | Plant response rating (0 to 10 scale), Crabgrass (crabgrass; PREEMERGENCE, Rate 200 g/ha): 3 | Plant response rating, Crabgrass (crabgrass; Rate 200 g/ha, POSTEMERGENCE): 5 | Plant response rating Lambsquarters (lambsquarters; POSTEMERGENCE, 62 g/ha): 100 | Plant response rating Lambsquarters (lambsquarters; POSTEMERGENCE, 250 g/ha): 100 | Plant response rating (0 to 100), Lambsquarters (lambsquarters; POSTEMERGENCE, Rate 4 g/ha): 30 | Plant response rating Lambsquarters (lambsquarters; PREEMERGENCE, 62 g/ha): 100 | Plant response rating Lambsquarters (lambsquarters; PREEMERGENCE, 250 g/ha): 100 | Plant response rating (0 to 100), Lambsquarters (lambsquarters; PREEMERGENCE, Rate 4 g/ha): 0 | Plant response rating (0 to 100), Lambsquarters (lambsquarters; Rate 16 g/ha, POSTEMERGENCE): 80 | Plant response rating (0 to 100), Lambsquarters (lambsquarters; Rate 16 g/ha, PREEMERGENCE): 70 | Plant response rating, Cotton (cotton [1]; POSTEMERGENCE, Rate 50 g/ha): 10 | Plant response rating, Cotton (cotton [1]; PREEMERGENCE, Rate 50 g/ha): 0 | Plant response rating (0 to 10 scale), Cotton (cotton [1]; PREEMERGENCE, Rate 200 g/ha): 0 | Plant response rating, Cotton (cotton [1]; Rate 200 g/ha, POSTEMERGENCE): 10 | Plant response rating (0 to 100), Duck salad (duck salad; [5]): 0 | Plant response rating (0 to 100), Duck salad (duck salad; [6]): 30 | Plant response rating Duck salad (duck salad; 62 g/ha): 75 | Plant response rating Duck salad (duck salad; 250 g/ha): 90 | Plant response rating, Wild oat (wild oat; POSTEMERGENCE, Rate 50 g/ha): 5 | Plant response rating, Wild oat (wild oat; PREEMERGENCE, Rate 50 g/ha): 2 | Plant response rating (0 to 10 scale), Wild oat (wild oat; PREEMERGENCE, Rate 200 g/ha): 5 | Plant response rating, Wild oat (wild oat; Rate 200 g/ha, POSTEMERGENCE): 6 | Plant response rating, Blackgrass (blackgrass; Rate 50 g/ha): 4 | Plant response rating (0 to 10 scale), Blackgrass (blackgrass; PREEMERGENCE, Rate 200 g/ha): 7 | Plant response rating, Blackgrass (blackgrass; Rate 200 g/ha): 6 | Plant response rating, Velvetleaf (velvetleaf; POSTEMERGENCE, 62 g/ha): 75 | Plant response rating, Velvetleaf (velvetleaf; POSTEMERGENCE, 250 g/ha): 100 | Plant response rating (0 to 100), Velvetleaf (velvetleaf; POSTEMERGENCE, Rate 4 g/ha): 60 | Plant response rating, Velvetleaf (velvetleaf; PREEMERGENCE, 250 g/ha): 100 | Plant response rating (0 to 100), Velvetleaf (velvetleaf; Rate 16 g/ha, POSTEMERGENCE): 65 | Plant response rating (0 to 100), Velvetleaf (velvetleaf; Rate 16 g/ha, PREEMERGENCE): 70 | Plant response rating, Cotton (cotton [2]; POSTEMERGENCE, 62 g/ha): 100 | Plant response rating, Cotton (cotton [2]; POSTEMERGENCE, 250 g/ha): 100 | Plant response rating (0 to 100), Cotton (cotton [2]; POSTEMERGENCE, Rate 4 g/ha): 70 | Plant response rating, Cotton (cotton [2]; PREEMERGENCE, 62 g/ha): 40 | Plant response rating, Cotton (cotton [2]; PREEMERGENCE, 250 g/ha): 90 | Plant response rating (0 to 100), Cotton (cotton [2]; PREEMERGENCE, Rate 4 g/ha): 0 | Plant response rating (0 to 100), Cotton (cotton [2]; Rate 16 g/ha, POSTEMERGENCE): 85 | Plant response rating (0 to 100), Cotton (cotton [2]; Rate 16 g/ha, PREEMERGENCE): 0 | Plant response rating (0 to 100), Barnyardgrass 2 (barnyardgrass; [5]): 10 | Plant response rating (0 to 100), Barnyardgrass 2 (barnyardgrass; [6]): 90 | Plant response rating Barnyardgrass 2 (barnyardgrass; 62 g/ha): 100 | Plant response rating Barnyardgrass 2 (barnyardgrass; 250 g/ha): 100 | Plant response rating, Rice (rice; POSTEMERGENCE, Rate 50 g/ha): 5 | Plant response rating, Rice (rice; PREEMERGENCE, Rate 50 g/ha): 0 | Plant response rating (0 to 10 scale), Rice (rice; PREEMERGENCE, Rate 200 g/ha): 0 | Plant response rating, Rice (rice; Rate 200 g/ha, POSTEMERGENCE): 6 | Plant response rating, Sugar beet (sugar beet; POSTEMERGENCE, Rate 50 g/ha): 10 | Plant response rating, Sugar beet (sugar beet; PREEMERGENCE, Rate 50 g/ha): 8 | Plant response rating (0 to 10 scale), Sugar beet (sugar beet; PREEMERGENCE, Rate 200 g/ha): 10 | Plant response rating, Sugar beet (sugar beet; Rate 200 g/ha, POSTEMERGENCE): 10 | Plant response rating, Nutsedge (purple nutsedge; POSTEMERGENCE, Rate 50 g/ha): 2 | Plant response rating, Nutsedge (purple nutsedge; PREEMERGENCE, Rate 50 g/ha): 0 | Plant response rating (0 to 10 scale), Nutsedge (purple nutsedge; PREEMERGENCE, Rate 200 g/ha): 0 | Plant response rating, Nutsedge (purple nutsedge; Rate 200 g/ha, POSTEMERGENCE): 2 | Plant response rating, Wild buckwheat (wild buckwheat; POSTEMERGENCE, 62 g/ha): 100 | Plant response rating, Wild buckwheat (wild buckwheat; POSTEMERGENCE, 250 g/ha): 100 | Plant response rating (0 to 100), Wild buckwheat (wild buckwheat; POSTEMERGENCE, Rate 4 g/ha): 100 | Plant response rating, Wild buckwheat (wild buckwheat; PREEMERGENCE, 250 g/ha): 100 | Plant response rating (0 to 100), Wild buckwheat (wild buckwheat; PREEMERGENCE, Rate 4 g/ha): 0 | Plant response rating (0 to 100), Wild buckwheat (wild buckwheat; Rate 16 g/ha, POSTEMERGENCE): 100 | Plant response rating (0 to 100), Wild buckwheat (wild buckwheat; Rate 16 g/ha, PREEMERGENCE): 75 | Plant response rating Pigweed (pigweed; POSTEMERGENCE, 62 g/ha): 100 | Plant response rating Pigweed (pigweed; POSTEMERGENCE, 250 g/ha): 100 | Plant response rating (0 to 100), Pigweed (pigweed; POSTEMERGENCE, Rate 4 g/ha): 30 | Plant response rating Pigweed (pigweed; PREEMERGENCE, 62 g/ha): 100 | Plant response rating Pigweed (pigweed; PREEMERGENCE, 250 g/ha): 100 | Plant response rating (0 to 100), Pigweed (pigweed; PREEMERGENCE, Rate 4 g/ha): 0 | Plant response rating (0 to 100), Pigweed (pigweed; Rate 16 g/ha, POSTEMERGENCE): 100 | Plant response rating (0 to 100), Pigweed (pigweed; Rate 16 g/ha, PREEMERGENCE): 90 | Plant response rating, Wheat (wheat [3]; POSTEMERGENCE, 62 g/ha): 60 | Plant response rating, Wheat (wheat [3]; POSTEMERGENCE, 250 g/ha): 70 | Plant response rating (0 to 100), Wheat (wheat [3]; POSTEMERGENCE, Rate 4 g/ha): 20 | Plant response rating, Wheat (wheat [3]; PREEMERGENCE, 250 g/ha): 70 | Plant response rating (0 to 100), Wheat (wheat [3]; PREEMERGENCE, Rate 4 g/ha): 0 | Plant response rating (0 to 100), Wheat (wheat [3]; Rate 16 g/ha, POSTEMERGENCE): 40 | Plant response rating (0 to 100), Wheat (wheat [3]; Rate 16 g/ha, PREEMERGENCE): 0 | Plant response rating, Corn (corn; POSTEMERGENCE, Rate 50 g/ha): 3 | Plant response rating, Corn (corn; PREEMERGENCE, Rate 50 g/ha): 0 | Plant response rating (0 to 10 scale), Corn (corn; PREEMERGENCE, Rate 200 g/ha): 0 | Plant response rating, Corn (corn; Rate 200 g/ha, POSTEMERGENCE): 3 | Plant response rating, Wheat (wheat [4]; POSTEMERGENCE, Rate 50 g/ha): 5 | Plant response rating, Wheat (wheat [4]; PREEMERGENCE, Rate 50 g/ha): 0 | Plant response rating (0 to 10 scale), Wheat (wheat [4]; PREEMERGENCE, Rate 200 g/ha): 3 | Plant response rating, Wheat (wheat [4]; Rate 200 g/ha, POSTEMERGENCE): 5 | Plant response rating, Sorghum (sorghum; POSTEMERGENCE, Rate 50 g/ha): 5 | Plant response rating, Sorghum (sorghum; PREEMERGENCE, Rate 50 g/ha): 0 | Plant response rating (0 to 10 scale), Sorghum (sorghum; PREEMERGENCE, Rate 200 g/ha): 0 | Plant response rating, Sorghum (sorghum; Rate 200 g/ha, POSTEMERGENCE): 7
